Results as given in US20240246960A1 (adMare Therapeutics Society, priority 2021, published 2024).
Where two headings read alike, the source gives them in different places.

Columns and labels:
DNA-PK = target: T1, DNA-PK (Homo sapiens, UniProt P78527); assay: DNA-PK Assay for Biochemical Enzymatic Inhibition (ADP Glo Kinase assay)
T1 construct: purchased Invitrogen PR9107A
Method in brief: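 Human DNA-PK (25 ng) preincubated 15 min with compounds (ten three-fold dilutions) in HEPES pH 7.5, MgCl2, KCl, calf thymus DNA buffer, then substrate 434.4 μM and ATP 64.4 μM (final) for 60 min at room temperature. ADP-Glo luminescence; percent inhibition fitted by four-parameter regression for IC50.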

[1] = target: T2, DNA-PK phosphorylation at Serine 2056 (Homo sapiens, UniProt P78527); assay: Cellular Assay for Inhibition of DNA-PK Phosphorylation at Serine 2056 (FaDu cells, neocarzinostatin, sandwich ELISA); type: cell-based
T2 construct: host or cells: FaDu
Method in brief: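 Readout was pSer2056 and total DNA-PK, measured by sandwich ELISA on protein-normalized lysates. Prior to lysis, compound was applied to FaDu cells for 1 h (0.3% DMSO), followed by 2 h of 1 μg/mL neocarzinostatin. IC50 values were fitted from log concentration versus % inhibition normalized to DMSO and NCS controls.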

[2] = target: T3, pDNA-PK ser2056 induction in HCT116 spheroids (Homo sapiens, UniProt P78527); assay: Multicellular tumour spheroid + radiation, pDNA-PK inhibition, HCT116; type: cell-based; settings: 20 Gy, 20% O2
T3 construct: endogenous in cells; host or cells: HCT116 multicellular tumour spheroids
Method in brief: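 EC50 (μM) is concentration halving radiation-induced pDNA-PK ser2056, scored by fluorescent immunostaining of cryosections 2 h after 20 Gy. HCT116 tumour spheroids (~0.5 mm, stirred, 20% O2/5% CO2, 37 °C) exposed to serial dilutions from 10 or 5 μM to 3.5 nM starting 1 h before irradiation.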

[3] = Microsomal stability assay, mouse liver microsomes; settings: for microsomal CLint at 0.1 uM: male, CD-1, mouse, liver microsomes, pH 7.4, Microsomal Stability Mouse Clint
[4] = Hepatocyte stability assay, mouse hepatocytes; type: in vitro ADME; settings: for hepatocyte CLint at 1 uM: male, CD-1, mouse, cryopreserved hepatocytes
Method: (§1) Cryopreserved mouse hepatocytes were obtained from a pool of 10 or more male CD-1 mice. Cryopreserved human hepatocytes were obtained from a pool of 10 or more donors of mixed gender. Final hepatocyte density was 0.7 million viable cells per mL and test compound concentration was 1 uM with a maximum of 0.01% DMSO. Cryopreserved hepatocytes were thawed, washed, and resuspended in Krebs-Heinslet buffer (pH 7.3). The reaction was initiated by adding the test compound into cell suspension and incubated for 0, […], 1, 1.5, and 2 h, respectively, at 37° C./5% CO2. The reaction was stopped by adding acetonitrile into the incubation mixture. Samples were then mixed, transferred completely to another 96-well plate, and centrifuged. Supernatants were used for HPLC-MS/MS analysis. […] Peak areas corresponding to the test compound were recorded.

[5] = Microsomal stability assay, human liver microsomes; type: in vitro ADME; settings: for Microsomal Stability (human) % rem. 60 min: Example 11; for microsomal CLint at 0.1 uM: both sexes, human, liver microsomes, pH 7.4, Example 11
Method: Samples were then mixed and centrifuged. Supernatants were used for HPLC-MS/MS analysis. […] Peak areas corresponding to the test compound were recorded.

[6] = Hepatocyte stability assay, human hepatocytes; type: in vitro ADME; settings: both sexes, human, cryopreserved hepatocytes, pH 7.3; Example 11
Method: as §1

[7] = Example 7, spheroid, cell line HCT115 [sic], read-out: EC50 (pDNA-PK inhibition, immunohistochemical endpoint)
[8] = Example 9 Study 2, read-out: Spheroid Cell line: HCT116 Immunohistochemical endpoint pDNA-PK inhibition EC50
[9] = 0.1 mg/mL microsomes, 0.1 uM compound

Row | SMILES | IC50 (DNA-PK; Table 1) | IC50 ([1]; Table 1) | EC50 [2, 7] | EC50 [2, 8] | Microsomal Stability (mouse) % rem. 60 min [3] | microsomal CLint at 0.1 uM [3, 9] | Hepatocyte Stability (mouse) % rem. 120 min ([4]; 120 min) | hepatocyte CLint at 1 uM ([4]; pH 7.3, 0.7 million cells per mL, 1 uM compound) | IC50 (DNA-PK; Table 2) | IC50 ([1]; Table 2) | Microsomal Stability (human) % rem. 60 min [5] | microsomal CLint at 0.1 uM [5] | Microsomal Stability (mouse) % rem. 60 min ([3]; Example 11) | microsomal CLint at 0.1 uM ([3]; Example 11) | hepatocyte CLint at 1 uM ([4]; pH 7.3, Example 11) | hepatocyte CLint at 1 uM [6]
1 | O=C(N[C@H]1CC[C@@H](Oc2nc(N3CCOCC3)cc3ncccc23)CC1)c1ccc(Cl)nc1 [Compound 116, 6-chloro-N-((1s,4s)-4-((7-morpholino-1,6-naphthyridin-5-yl)oxy)cyclohexyl)nicotinamide] | 0.5 to 1 nM | 100 to 1000 nM | 1000 to 10000 nM | 1000 to 10000 nM | F (% remaining = 25-50%) | > 116 µL/min/mg |  |  |  |  |  |  |  |  |  | 
2 | O=C(N[C@H]1CC[C@@H](Oc2nc(N3CCOCC3)cc3ncccc23)CC1)c1ncc(Cl)cn1 [Compound 124, 5-chloro-N-((1s,4s)-4-((7-morpholino-1,6-naphthyridin-5-yl)oxy)cyclohexyl)pyrimidine-2-carboxamide] | 0.5 to 1 nM | 100 to 1000 nM | 1000 to 10000 nM | 1000 to 10000 nM | F (% remaining = 25-50%) | > 116 µL/min/mg |  |  |  |  |  |  |  |  |  | 
3 | O=C(N[C@H]1CC[C@@H](Oc2nc(N3CCOCC3)cc3ncccc23)CC1)n1cccn1 [Compound 136, N-((1s,4s)-4-((7-morpholino-1,6-naphthyridin-5-yl)oxy)cyclohexyl)-1H-pyrazole-1-carboxamide] | 0.5 to 1 nM | 100 to 1000 nM | 1000 to 10000 nM | 1000 to 10000 nM | E (% remaining = 0-25%) | > 116 µL/min/mg |  |  |  |  |  |  |  |  |  | 
4 | Nc1cnc2cc(N3CCOCC3)nc(O[C@H]3CC[C@@H](Nc4ncccn4)CC3)c2c1 [Compound 184, 7-morpholino-5-(((1s,4s)-4-(pyrimidin-2-ylamino)cyclohexyl)oxy)-1,6-naphthyridin-3-amine] | < 0.5 nM | < 100 nM | 1000 to 10000 nM | 1000 to 10000 nM | E (% remaining = 0-25%) | > 116 µL/min/mg |  |  |  |  |  |  |  |  |  | 
5 | CN(c1cnc2cc(N3CCOCC3)nc(O[C@H]3CC[C@@H](Nc4ncccn4)CC3)c2c1)S(C)(=O)=O [Compound 197, N-methyl-N-(7-morpholino-5-(((1s,4s)-4-(pyrimidin-2-ylamino)cyclohexyl)oxy)-1,6-naphthyridin-3-yl)methanesulfonamide] | 1 to 10 nM | 100 to 1000 nM |  |  |  |  | G (% remaining = 50-75%) | > 8.2 µL/min/1e6 cells |  |  |  |  |  |  |  | 
6 | COc1cnc(N[C@H]2CC[C@@H](Oc3nc(N4CCOCC4)cc4ncc(N)cc34)CC2)nc1 [Compound 202, 5-(((1s,4s)-4-((5-methoxypyrimidin-2-yl)amino)cyclohexyl)oxy)-7-morpholino-1,6-naphthyridin-3-amine] | < 0.5 nM | < 100 nM | 1000 to 10000 nM | 1000 to 10000 nM | E (% remaining = 0-25%) | > 116 µL/min/mg |  |  |  |  |  |  |  |  |  | 
7 | CS(=O)(=O)Nc1cnc2cc(N3CCOCC3)nc(O[C@H]3CC[C@@H](NC(=O)c4ncccn4)CC3)c2c1 [LFA015, N-[4-[[3-(Methanesulfonamido)-7-morpholino-1,6-naphthyridin-5-yl]oxy]cyclohexyl]pyrimidine-2-carboxamide] |  |  |  |  |  |  |  |  | < 0.5 nM | 1000 to 10000 nM | H (% remaining = 75-100%) | < 116 µL/min/mg | H (% remaining = 75-100%) | < 116 µL/min/mg |  | 
8 | CS(=O)(=O)Nc1cnc2cc(N3CCOCC3)nc(O[C@H]3CC[C@@H](n4ccnc4)CC3)c2c1 [LFA017, N-[5-(4-Imidazol-1-ylcyclohexoxy)-7-morpholino-1,6-naphthyridin-3-yl]methanesulfonamide] |  |  |  |  |  |  |  |  | < 0.5 nM |  |  |  |  |  | > 8.2 µL/min/1e6 cells | < 8.2 µL/min/1e6 cells
9 | O=C(N[C@H]1CC[C@@H](Oc2nc(N3CCOCC3)cc3ncc(O)cc23)CC1)c1ncccn1 [LFA115, N-[4-[(3-Hydroxy-7-morpholino-1,6-naphthyridin-5-yl)oxy]cyclohexyl]pyrimidine-2-carboxamide] |  |  |  |  |  |  |  |  | 0.5 to 1 nM | 100 to 1000 nM | G (% remaining = 50-75%) | < 116 µL/min/mg | G (% remaining = 50-75%) | < 116 µL/min/mg |  | 
10 | Oc1cnc2cc(N3CCOCC3)nc(O[C@H]3CC[C@@H](Nc4ncccn4)CC3)c2c1 [LFA117, 7-Morpholino-5-[4-(pyrimidin-2-ylamino)cyclohexoxy]-1,6-naphthyridin-3-ol] |  |  |  |  |  |  |  |  | < 0.5 nM | < 100 nM | H (% remaining = 75-100%) | < 116 µL/min/mg | F (% remaining = 25-50%) | < 116 µL/min/mg |  | 

Further lines, results first:

Row | IC50 (DNA-PK; Table 1) | IC50 ([1]; Table 1) | EC50 [2, 7] | EC50 [2, 8] | Microsomal Stability (mouse) % rem. 60 min [3] | microsomal CLint at 0.1 uM [3, 9] | Hepatocyte Stability (mouse) % rem. 120 min ([4]; 120 min) | hepatocyte CLint at 1 uM ([4]; pH 7.3, 0.7 million cells per mL, 1 uM compound) | IC50 (DNA-PK; Table 2) | IC50 ([1]; Table 2) | Microsomal Stability (human) % rem. 60 min [5] | microsomal CLint at 0.1 uM [5] | Microsomal Stability (mouse) % rem. 60 min ([3]; Example 11) | microsomal CLint at 0.1 uM ([3]; Example 11) | hepatocyte CLint at 1 uM ([4]; pH 7.3, Example 11) | hepatocyte CLint at 1 uM [6] | SMILES
11 | 0.5 to 1 nM | 100 to 1000 nM | 1000 to 10000 nM | 1000 to 10000 nM | E (% remaining = 0-25%) | > 116 µL/min/mg |  |  |  |  |  |  |  |  |  |  | O=C(N[C@H]1CC[C@@H](Oc2nc(N3CCOCC3)cc3ncccc23)CC1)c1cnccn1 [Compound 119, N-((1s,4s)-4-((7-morpholino-1,6-naphthyridin-5-yl)oxy)cyclohexyl)pyrazine-2-carboxamide]
12 | 0.5 to 1 nM | 100 to 1000 nM | 1000 to 10000 nM | 1000 to 10000 nM | F (% remaining = 25-50%) | > 116 µL/min/mg |  |  |  |  |  |  |  |  |  |  | Cc1ccnc(C(=O)N[C@H]2CC[C@@H](Oc3nc(N4CCOCC4)cc4ncccc34)CC2)n1 [Compound 127]
13 | 0.5 to 1 nM | 100 to 1000 nM | 1000 to 10000 nM | 1000 to 10000 nM | F (% remaining = 25-50%) | > 116 µL/min/mg |  |  |  |  |  |  |  |  |  |  | Cc1cnc(C(=O)N[C@H]2CC[C@@H](Oc3nc(N4CCOCC4)cc4ncccc34)CC2)nc1 [Compound 128, 5-methyl-N-((1s,4s)-4-((7-morpholino-1,6-naphthyridin-5-yl)oxy)cyclohexyl)pyrimidine-2-carboxamide]
14 | 0.5 to 1 nM | 100 to 1000 nM | 500 to 1000 nM | 500 to 1000 nM | E (% remaining = 0-25%) | > 116 µL/min/mg |  |  |  |  |  |  |  |  |  |  | O=C(N[C@H]1CC[C@@H](Oc2nc(N3CCOCC3)cc3ncccc23)CC1)c1cc[nH]n1 [Compound 138, N-((1s,4s)-4-((7-morpholino-1,6-naphthyridin-5-yl)oxy)cyclohexyl)-1H-pyrazole-3-carboxamide]
15 | 1 to 10 nM | 100 to 1000 nM | 10000 to 100000 nM | 10000 to 100000 nM | G (% remaining = 50-75%) | < 116 µL/min/mg |  |  |  |  |  |  |  |  |  |  | O=C(N[C@H]1CC[C@@H](Oc2nc(N3CCOCC3)cc3ncccc23)CC1)c1scnc1Cl [Compound 139, 4-chloro-N-((1s,4s)-4-((7-morpholino-1,6-naphthyridin-5-yl)oxy)cyclohexyl)thiazole-5-carboxamide]
16 | < 0.5 nM | < 100 nM | 500 to 1000 nM | 500 to 1000 nM | E (% remaining = 0-25%) | > 116 µL/min/mg |  |  |  |  |  |  |  |  |  |  | O=C(N[C@H]1CC[C@@H](Oc2nc(N3CCOCC3)cc3ncccc23)CC1)c1ncc[nH]1 [Compound 143, N-((1s,4s)-4-((7-morpholino-1,6-naphthyridin-5-yl)oxy)cyclohexyl)-1H-imidazole-2-carboxamide]
17 | 0.5 to 1 nM | < 100 nM | 10 to 500 nM | 10 to 500 nM | E (% remaining = 0-25%) | > 116 µL/min/mg |  |  |  |  |  |  |  |  |  |  | O=C(N[C@H]1CC[C@@H](Oc2nc(N3CCOCC3)cc3ncccc23)CC1)c1ccc[nH]1 [Compound 145]
